# Data published in US11230542B2, “Inhibitors of integrated stress response pathway” (Praxis Biotech LLC, priority 2017, dated 2022).
# Test system: hippocampal slices from transgenic APP/PS1 mice
# Test: Electrophysiology and long-term potentiation in hippocampal slices
# Settings: slices from APP/PS1 mouse, 5 μM, 60 min after theta burst stimulation
# Experimental: Hippocampal slices were prepared as described in Ardiles et al., Pannexin 1 regulates bidirectional hippocampal synaptic plasticity in adult mice. Front Cell Neurosci, vol. 8, art. 326 (2014). Six to eleven-month-old WT C57BL/6 or transgenic APP/PS1 mice (Jackson Lab 34829-JAX) were deeply anesthetized with isoflurane and their brains were quickly removed. 5-10 slices (350 μm) from each animal were dissected in ice-cold dissection buffer using a vibratome (Leica VT1200S, Leica Microsystems, Nussloch, Germany). Slices were incubated with 5 μM ISRIB, 5 μM compound 3, 1 μM compound 152, or a vehicle (complete medium containing 0.1% DMSO) 20 min before conditioning stimulation. Synaptic responses were evoked by stimulating the Schaffer collaterals with 0.2 ms pulses delivered through concentric bipolar stimulating electrodes, and recorded extracellularly in the stratum radiatum of the CA1 subfield. Long-term potentiation (LTP) was induced by four-theta burst stimulation (TBS) (10 trains of four pulses at 100 Hz; 5 Hz inter-burst interval) delivered at 0.1 Hz. LTP magnitude based on field excitatory postsynaptic potential (fEPSP) was calculated as the average (normalized to baseline) of the responses recorded 60 min after conditioning stimulation. Similar experiments can be performed using a different test compound in place of ISRIB, compound 3, or compound 152.
smiles,measurement,value
O=C(COc1ccc(Cl)cc1)NC1CCC(NC(=O)COc2ccc(Cl)cc2)CC1 (stereo not shown) [ISRIB],"long-term potentiation (LTP), fEPSP",partial LTP recovery
